# Article PMC5719400, “Engineering an aldehyde dehydrogenase toward its substrates, 3-hydroxypropanal and NAD^+, for enhancing the production of 3-hydroxypropionic acid” (Scientific Reports, 2017)
# Target: T1, KGSADH (α-ketoglutaric semialdehyde dehydrogenase) (Azospirillum brasilense, UniProt Q1JUP4)
# T1 construct: gene araE; N-terminal His6-tag (pQE80L), expressed in E. coli DH10β, Ni-NTA purified; catalytic residues E253 and C287
# Assay: product inhibition, A340 activity assay
# Format: biochemical
# Details: 2 mM NAD+, 100 mM phosphate pH 8
# T1 sequence (Q1JUP4 2-481): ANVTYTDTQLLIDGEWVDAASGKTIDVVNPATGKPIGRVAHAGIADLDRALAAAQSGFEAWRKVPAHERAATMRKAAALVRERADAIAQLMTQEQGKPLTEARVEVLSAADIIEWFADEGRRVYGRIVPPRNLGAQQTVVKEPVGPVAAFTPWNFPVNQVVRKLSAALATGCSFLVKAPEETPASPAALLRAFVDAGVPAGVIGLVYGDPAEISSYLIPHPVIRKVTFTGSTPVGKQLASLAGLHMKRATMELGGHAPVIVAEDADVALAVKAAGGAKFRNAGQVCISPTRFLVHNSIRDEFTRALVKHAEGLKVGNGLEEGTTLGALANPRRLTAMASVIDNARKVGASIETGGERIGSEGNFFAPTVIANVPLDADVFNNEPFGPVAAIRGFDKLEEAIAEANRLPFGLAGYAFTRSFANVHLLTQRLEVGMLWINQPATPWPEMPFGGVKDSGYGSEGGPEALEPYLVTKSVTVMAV
compound,measurement,value
"O=C(O)CCO [3-HP, 3-hydroxypropionic acid]",% decrease in activity at 1 M,~ 40%
